Reference: patent publication US12428406B2 (PMV Pharmaceuticals, Inc., priority 2019, dated 2025)

Target: T1, p53 Y220C (Homo sapiens, UniProt P04637, Y220C)
T1 construct: The recombinant protein was a truncation mutant containing only amino acids 94-312 of p53; made in house; host or cells: E. coli
Assay: In vitro DNA binding activity assay (HTRF / TR-FRET): stabilization of p53 Y220C and increase of its DNA binding activity
Type: biochemical
Conditions: recombinant His-tagged p53 Y220C DNA binding domain (aa 94-312), biotin-labeled consensus DNA, incubated at 27° C. or 29° C. for 60 min
Outline: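 His-tagged p53 Y220C, E. coli-expressed, binding biotin-labeled consensus DNA measured by HTRF (anti-His-APC, streptavidin-europium). Compounds from 4.5 mM DMSO stocks, 3-fold serial dilutions; incubations at room temperature 15 min, then 20 min. SC150 = concentration raising DNA binding by 50%.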

T1 sequence (P04637 94-312, change not shown): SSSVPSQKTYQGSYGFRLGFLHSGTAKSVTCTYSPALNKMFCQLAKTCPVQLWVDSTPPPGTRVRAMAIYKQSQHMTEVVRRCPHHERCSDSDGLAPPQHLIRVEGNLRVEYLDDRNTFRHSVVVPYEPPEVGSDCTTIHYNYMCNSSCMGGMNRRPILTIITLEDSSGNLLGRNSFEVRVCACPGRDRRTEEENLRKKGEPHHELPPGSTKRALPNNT

SC150 (concentration of the compound required to increase the DNA binding activity by 50%), + (+ = 0 μM ≤ SC150 < 0.05 μM):
COc1cc(S(=O)(=O)NC2CCOCC2)ccc1NCC#Cc1cc2c(N[C@H]3CC[C@H](N(C)C)CC3)cccc2n1CC(F)(F)F [Compound 49A, 3-methoxy-N-(oxan-4-yl)-4-{[3-(4-{[(1R,4R)-4-(dimethylamino)cyclohexyl]amino}-1-(2,2,2-trifluoroethyl)-1H-indol-2-yl)prop-2-yn-1-yl]amino}benzene-1-sulfonamide]
COc1cc(S(=O)(=O)Nc2ccon2)ccc1NCC#Cc1cc2c(N[C@H]3CC[C@@H](N(C)C)CC3)cccc2n1CC(F)(F)F [Compound 50A, 3-methoxy-N-(1,2-oxazol-3-yl)-4-{[3-(4-{[(1S,4S)-4-(dimethylamino)cyclohexyl]amino}-1-(2,2,2-trifluoro-ethyl)-1H-indol-2-yl)prop-2-yn-1-yl]amino}benzene-1-sulfonamide]
COc1cc(S(=O)(=O)NC2CCOCC2)ccc1NCC#Cc1cc2c(N[C@H]3CC[C@@H](N(C)C)CC3)cccc2n1CC(F)(F)F [Compound 51A, 3-methoxy-N-(oxan-4-yl)-4-{[3-(4-{[(1S,4S)-4-(dimethylamino)cyclohexyl]amino}-1-(2,2,2-trifluoroethyl)-1H-indol-2-yl)prop-2-yn-1-yl]amino}benzene-1-sulfonamide]
COc1cc(S(=O)(=O)Nc2cc(C)on2)ccc1NCC#Cc1cc2c(N[C@H]3CC[C@@H](N(C)C)CC3)cccc2n1CC(F)(F)F [Compound 54A, 3-methoxy-N-(5-methyl-1,2-oxazol-3-yl)-4-{[3-(4-{[(1S,4S)-4-(dimethylamino)cyclohexyl]amino}-l-(2,2,2-trifluoroethyl)-1H-indol-2-yl)prop-2-yn-1-yl]amino}benzene-1-sulfonamide]
COc1cc(S(=O)(=O)Nc2cc(C)on2)ccc1NCC#Cc1cc2c(N[C@H]3CC[C@H](N(C)C)CC3)cccc2n1CC(F)(F)F [Compound 55A, 3-methoxy-N-(5-methyl-1,2-oxazol-3-yl)-4-{[3-(4-{[(1R,4R)-4-(dimethylamino)cyclohexyl]amino}-1-(2,2,2-trifluoroethyl)-1H-indol-2-yl)prop-2-yn-1-yl]amino}benzene-1-sulfonamide]
COCCN(C)[C@H]1CC[C@@H](Nc2cccc3c2cc(C#CCNc2ccc(S(C)(=O)=O)cc2OC)n3CC(F)(F)F)CC1 [Compound 56A, (1S,4S)-N^4-(2-{3-[(4-methanesulfonyl-2-methoxyphenyl)amino]prop-1-yn-1-yl}-1-(2,2,2-trifluoroethyl)-1H-indol-4-yl)-N^1-(2-methoxyethyl)-N^1-methylcyclohexane-1,4-diamine]
COCCN(C)[C@H]1CC[C@H](Nc2cccc3c2cc(C#CCNc2ccc(S(C)(=O)=O)cc2OC)n3CC(F)(F)F)CC1 [Compound 57A, (1R,4R)-N^4-(2-{3-[(4-methanesulfonyl-2-methoxyphenyl)amino]prop-1-yn-1-yl}-1-(2,2,2-trifluoro-ethyl)-1H-indol-4-yl)-N^1-(2-methoxyethyl)-N^1-methylcyclohexane-1,4-diamine]
COc1cc(S(N)(=O)=O)ccc1NCC#Cc1cc2c(N[C@H]3CC[C@@H](N4C[C@H](O)[C@@H](O)C4)CC3)cccc2n1CC(F)(F)F [Compound 58A, 3-methoxy-4-{[3-(4-{[(1S,4S)-4-[(3S,4S)-3,4-dihydroxypyrrolidin-1-yl]cyclohexyl]amino}-1-(2,2,2-trifluoroethyl)-1H-indol-2-yl)prop-2-yn-1-yl]amino}benzene-1-sulfonamide]
COCCN(CCOC)[C@H]1CC[C@H](Nc2cccc3c2cc(C#CCNc2ccc(S(N)(=O)=O)cc2OC)n3CC(F)(F)F)CC1 [Compound 61A, 3-methoxy-4-{[3-(4-{[(1R,4R)-4-[bis(2-methoxyethyl)amino]cyclo-hexyl]amino}-1-(2,2,2-trifluoroethyl)-1H-indol-2-yl)prop-2-yn-1-yl]amino}benzene-1-sulfonamide]
COCCN(CCOC)[C@H]1CC[C@@H](Nc2cccc3c2cc(C#CCNc2ccc(S(N)(=O)=O)cc2OC)n3CC(F)(F)F)CC1 [Compound 62A, 3-methoxy-4-{[3-(4-{[(1S,4S)-4-[bis(2-methoxyethyl)amino]cyclo-hexyl]amino}-1-(2,2,2-trifluoroethyl)-1H-indol-2-yl)prop-2-yn-1-yl]amino}benzene-1-sulfonamide]
COc1cc(S(N)(=O)=O)ccc1NCC#Cc1cc2c(NC3CCC4(CC3)OCCO4)cccc2n1CC(F)(F)F [Compound 63A, 4-({3-[4-({1,4-dioxaspiro[4.5]decan-8-yl}amino)-1-(2,2,2-trifluoroethyl)-1H-indol-2-yl]prop-2-yn-1-yl}amino)-3-methoxy-benzene-1-sulfonamide]
COc1cc(S(C)(=O)=O)ccc1NCC#Cc1cc2c(NC3CCC4(CC3)OCCO4)cccc2n1CC(F)(F)F [Compound 64A, N-{1,4-dioxaspiro[4.5]decan-8-yl}-2-{3-[(4-methane-sulfonyl-2-methoxy-phenyl)amino]prop-1-yn-1-yl}-1-(2,2,2-trifluoroethyl)-1H-indol-4-amine]
COc1cc(S(N)(=O)=O)ccc1NCC#Cc1cc2c(NC3CCC(=O)CC3)cccc2n1CC(F)(F)F [Compound 65A, 3-methoxy-4-[(3-{4-[(4-oxocyclohexyl)amino]-1-(2,2,2-trifluoroethyl)-1H-indol-2-yl}prop-2-yn-1-yl)amino]benzene-1-sulfonamide]
COc1cc(S(C)(=O)=O)ccc1NCC#Cc1cc2c(NC3CCC(=O)CC3)cccc2n1CC(F)(F)F [Compound 66A, 4-[(2-{3-[(4-methane-sulfonyl-2-methoxy-phenyl)amino]prop-1-yn-1-yl}-1-(2,2,2-trifluoroethyl)-1H-indol-4-yl)amino]cyclo-hexan-1-one]
COc1cc(S(=O)(=O)N2CCOCC2)ccc1NCC#Cc1cc2c(N[C@H]3CC[C@H](N(C)C)CC3)cccc2n1CC(F)(F)F [Compound 67A, (1R,4R)-N^4-[2-(3-{[2-methoxy-4-(morpholine-4-sulfonyl)phenyl]amino}prop-1-yn-1-yl)-1-(2,2,2-trifluoro-ethyl)-1H-indol-4-yl]-N^1,N^1-dimethyl-cyclohexane-1,4-diamine]
COc1cc(S(=O)(=O)N2CCOCC2)ccc1NCC#Cc1cc2c(N[C@H]3CC[C@@H](N(C)C)CC3)cccc2n1CC(F)(F)F [Compound 68A, (1S,4S)-N4-[2-(3-{[2-methoxy-4-(morpholine-4-sulfonyl)phenyl]amino}prop-1-yn-1-yl)-1-(2,2,2-trifluoro-ethyl)-1H-indol-4-yl]-N^1,N^1-dimethyl-cyclohexane-1,4-diamine]
COc1cc(S(=O)(=O)N(CCO)CCO)ccc1NCC#Cc1cc2c(N[C@H]3CC[C@@H](N(C)C)CC3)cccc2n1CC(F)(F)F [Compound 69A, N,N-bis(2-hydroxyethyl)-3-methoxy-4-{[3-(4-{[(1S,4S)-4-(dimethyl-amino)cyclohexyl]amino}-1-(2,2,2-trifluoroethyl)-1H-indol-2-yl)prop-2-yn-1-yl]amino}benzene-1-sulfonamide]
COc1cc(S(=O)(=O)N(CCO)CCO)ccc1NCC#Cc1cc2c(N[C@H]3CC[C@H](N(C)C)CC3)cccc2n1CC(F)(F)F [Compound 70A, N,N-bis(2-hydroxyethyl)-3-methoxy-4-{[3-(4-{[(1R,4R)-4-(dimethyl-amino)cyclohexyl]amino}-1-(2,2,2-trifluoroethyl)-1H-indol-2-yl)prop-2-yn-1-yl]amino}benzene-1-sulfonamide]
CNS(=O)(=O)c1ccc(NCC#Cc2cc3c(N[C@H]4CC[C@H](N(C)C)CC4)cccc3n2CC(F)(F)F)c(OC)c1 [Compound 71A, 3-methoxy-N-methyl-4-{[3-(4-{[(1R,4R)-4-(dimethylamino)cyclohexyl]amino}-1-(2,2,2-trifluoroethyl)-1H-indol-2-yl)prop-2-yn-1-yl]amino}benzene-1-sulfonamide]
CNS(=O)(=O)c1ccc(NCC#Cc2cc3c(N[C@H]4CC[C@@H](N(C)C)CC4)cccc3n2CC(F)(F)F)c(OC)c1 [Compound 72A, 3-methoxy-N-methyl-4-{[3-(4-{[(1S,4S)-4-(dimethylamino)cyclohexyl]amino}-1-(2,2,2-trifluoroethyl)-1H-indol-2-yl)prop-2-yn-1-yl]amino}benzene-1-sulfonamide]
